From ChEMBL document CHEMBL4219152, “Design, synthesis, biological evaluation, homology modeling and docking studies of (E)-3-(benzo[d][1,3]dioxol-5-ylmethylene) pyrrolidin-2-one derivatives as potent anticonvulsant agents” (Bioorg Med Chem Lett, 2018)
The source made the active and inactive calls. No cut-off for these calls is given here.

What was measured:
Mus musculus [1] = organism: Mus musculus; assay: Neurotoxicity in Kunming mouse assessed as motor impairment by measuring reduction in time spent on rotarod after 0.5 hrs by rotarod test; assay type: toxicity, organism-based; details: in vivo
Mus musculus [2] = assay: Anticonvulsant activity in Kunming mouse assessed as protection against maximal electroshock-induced seizures in mouse at 300 mg/kg, ip measured after 0.5 hrs; assay type: functional, organism-based
Mus musculus [3] = organism: Mus musculus; assay: Neurotoxicity in Kunming mouse assessed as motor impairment by measuring reduction in time spent on rotarod after 4 hrs by rotarod test; assay type: toxicity, organism-based; details: in vivo
Mus musculus [4] = assay: Anticonvulsant activity in Kunming mouse assessed as protection against maximal electroshock-induced seizures in mouse at 300 mg/kg, ip measured after 4 hrs; assay type: functional, organism-based
Mus musculus [5] = assay: Anticonvulsant activity in Kunming mouse assessed as protection against subcutaneously injected metrazol-induced seizures at 300 mg/kg, ip after 4 hrs; assay type: functional, organism-based
Mus musculus [6] = assay: Anticonvulsant activity in ip dosed Kunming mouse assessed as protection against subcutaneously injected metrazol-induced seizures after 0.5 hrs; assay type: functional; details: read-out: MED
Mus musculus [7] = assay: Anticonvulsant activity in ip dosed Kunming mouse assessed as minimum dose required to protect maximal electroshock-induced seizures in mouse measured after 0.5 hrs; assay type: functional; details: read-out: MED
Mus musculus [8] = assay: Anticonvulsant activity in ip dosed Kunming mouse assessed as minimum dose required to protect maximal electroshock-induced seizures in mouse measured after 4 hrs; assay type: functional; details: read-out: MED
Mus musculus [9] = assay: Anticonvulsant activity in Kunming mouse assessed as protection against subcutaneously injected metrazol-induced seizures at 300 mg/kg, ip measured after 0.5 hrs; assay type: functional, organism-based
[10] = Protection index, ratio of TD50 for neurotoxicity by motor impairment in Kunming mouse to ED50 for protection against maximal electroshock-induced seizures in ip dosed Kunming mouse; assay type: toxicity, organism-based; details: in vivo, read-out: Ratio TD50/ED50
Mus musculus [11] = assay: Anticonvulsant activity in ip dosed Kunming mouse assessed as minimum dose required to protect maximal electroshock-induced seizures in mouse by measuring time to peak effect; assay type: functional
Mus musculus [12] = assay: Anticonvulsant activity in ip dosed Kunming mouse assessed as protection against maximal electroshock-induced seizures; assay type: functional
[13] = Neurotoxicity in ip dosed Kunming mouse assessed as motor impairment by measuring reduction in time spent on rotarod; assay type: toxicity, organism-based; details: in vivo
[14] = target: Sodium channel protein type 1 subunit alpha (Homo sapiens) (UniProt P35498); assay: Inhibition of human Nav1.1 expressed in CHO-K1 cells assessed as use-dependent block at 10 uM at holding potential of -120 mV incubated for 30 mins prior to testing measured every 20 seconds by whole-cell patch clamp method; assay type: cell-based
Nav1.1 = Nav1.1 (Homo sapiens, UniProt P35498); assay: Inhibition of human Nav1.1 expressed in CHO-K1 cells assessed as state-dependent block at 10 uM at holding potential of -120 mV incubated for 30 mins prior to testing measured every 20 seconds by whole-cell patch clamp method; assay type: cell-based; details: CHO-K1 cells expressing human Nav1.1

Row | Compound | MLD (Mus musculus [1]) [mg/kg] | Activity (Mus musculus [2]) | MLD (Mus musculus [3]) [mg/kg] | Activity (Mus musculus [4]) | Activity (Mus musculus [5]) | minimal effective dose (Mus musculus [6]) [mg/kg] | minimal effective dose (Mus musculus [7]) [mg/kg] | minimal effective dose (Mus musculus [8]) [mg/kg] | Activity (Mus musculus [9]) | selectivity ratio [10] | Time (Mus musculus [11]) [h] | ED50 (Mus musculus [12]) [mg/kg] | TD50 [13] [mg/kg] | inhibition [14] [%] | inhibition at 0.5 h, 10 µM (Nav1.1) [%]
1 | O=C1/C(=C/c2ccc3c(c2)OCO3)CCN1Cc1ccccc1Cl | 300 | inactive | 300 | inactive | inactive | 100 |  |  |  |  |  |  |  |  | 
2 | CC(C)(C)c1ccc(CN2CC/C(=C\c3ccc4c(c3)OCO4)C2=O)cc1 | 300 |  | 300 |  | inactive |  | 100 | 100 | inactive |  |  |  |  |  | 
3 | O=C1/C(=C/c2ccc3c(c2)OCO3)CCN1Cc1ccccc1F | 300 |  | 300 |  | inactive |  | 30 | 30 | inactive | 42.6 | 1 | 5.6 | 238 |  | 
4 | O=C1/C(=C/c2ccc3c(c2)OCO3)CCN1Cc1cccc(F)c1 | 300 | inactive | 300 |  | inactive |  |  | 30 | inactive |  |  |  |  |  | 
5 | CCC1(c2ccccc2)C(=O)NC(=O)NC1=O [PHENOBARBITAL] |  |  |  |  |  |  |  |  |  |  | 1 | 21.8 |  |  | 
6 | O=C1NC(=O)C(c2ccccc2)(c2ccccc2)N1 [PHENYTOIN] | 100 |  | 100 |  | inactive |  | 30 | 30 | inactive |  | 2 |  |  |  | 
7 | O=C1NCC/C1=C\c1ccc2c(c1)OCO2 | 300 |  | 300 |  | inactive |  | 30 | 100 | inactive | 10.4 | 1 | 17.3 | 179 |  | 
8 | Cc1ccc(CN2CC/C(=C\c3ccc4c(c3)OCO4)C2=O)cc1 | 300 |  | 300 |  | inactive |  | 30 | 30 | inactive | 26.5 | 1 | 6.3 | 167 |  | 
9 | O=C1/C(=C/c2ccc3c(c2)OCO3)CCN1Cc1c(F)cccc1F | 300 |  | 300 |  | inactive |  | 100 | 100 | inactive |  |  |  |  |  | 
10 | O=C1/C(=C/c2ccc3c(c2)OCO3)CCN1Cc1cccc(C(F)(F)F)c1 | 300 |  | 300 |  | inactive |  | 30 | 30 | inactive | 37.4 | 1 | 4.3 | 161 | 99.9 | 19.5
11 | O=C1/C(=C/c2ccc3c(c2)OCO3)CCN1Cc1ccc(F)cc1 | 300 |  | 300 | inactive | inactive |  | 30 |  | inactive |  |  |  |  |  | 
12 | Cc1ccccc1CN1CC/C(=C\c2ccc3c(c2)OCO3)C1=O | 300 | inactive | 300 |  | inactive | 100 |  | 30 |  |  |  |  |  |  | 
